From patent US11236129B2, “IL-17A binding peptides and medical uses thereof” (Dompe' Farmaceutici S.P.A., priority 2018, dated 2022)
Like-named read-outs stand apart in the source and are kept apart here. Residues, ends and D or L forms follow the SMILES beside them.

Target: IL-17RA/IL17RC dimerization induced by IL-17A (Homo sapiens, UniProt Q16552)
Assay: IL-17RA/IL17RC dimerization assay in response to IL-17A (PathHunter Cytokine Receptor Assay)
Format: cell-based
Outline: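 Receptor dimerization was read as chemiluminescence from complemented β-galactosidase after IL-17A at EC80 concentration for 6–16 h at 37 °C. Peptides were added 60 min before agonist, at 37 °C or room temperature, with 1% vehicle. Percent inhibition used the EC80-stimulated and vehicle wells as references.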

[1] = IL-17A at EC80, read-out: IC50 in IL-17RA/IL7RC dimerization assay

Chain of IL-17RA/IL17RC dimerization induced by IL-17A (Q16552 24-155): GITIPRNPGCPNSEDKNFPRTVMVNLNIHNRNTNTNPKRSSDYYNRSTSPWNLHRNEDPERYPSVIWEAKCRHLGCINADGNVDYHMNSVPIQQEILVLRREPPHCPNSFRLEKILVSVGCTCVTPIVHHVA

Structure (SMILES)	IC50 [1]	IC50
CC[C@H](C)[C@H](NC(C)=O)C(=O)N[C@@H](Cc1c[nH]cn1)C(=O)N[C@H](C(=O)N[C@H](C(=O)N[C@H](C(=O)N1CCC[C@H]1C(=O)N[C@@H](CC(C)C)C(=O)N[C@@H](CC(=O)O)C(=O)N[C@@H](CC(C)C)C(=O)N[C@@H](Cc1c[nH]c2ccccc12)C(=O)N[C@@H](CC(=O)O)C(=O)N[C@@H](Cc1c[nH]c2ccccc12)C(=O)N[C@H](C(=O)N[C@@H](CC(N)=O)C(=O)N[C@@H](CCCCN)C(N)=O)[C@@H](C)CC)[C@@H](C)CC)[C@@H](C)O)C(C)C [SEQ ID NO: 193] (Ac-IHVTIPLDLWDWINK-NH2)	< 10 µM	
CC[C@H](C)[C@H](NC(C)=O)C(=O)N[C@@H](Cc1c[nH]cn1)C(=O)N[C@H](C(=O)N[C@H](C(=O)N[C@H](C(=O)N1CCC[C@H]1C(=O)N1CCC[C@H]1C(=O)N[C@@H](CC(=O)O)C(=O)N[C@@H](CC(C)C)C(=O)N[C@@H](Cc1c[nH]c2ccccc12)C(=O)N[C@@H](CC(=O)O)C(=O)N[C@@H](Cc1c[nH]c2ccccc12)C(=O)N[C@H](C(=O)N[C@@H](CC(N)=O)C(=O)N[C@@H](CCCCN)C(N)=O)[C@@H](C)CC)[C@@H](C)CC)[C@@H](C)O)C(C)C [SEQ ID NO: 194] (Ac-IHVTIPPDLWDWINK-NH2)	< 10 µM	
CC[C@H](C)[C@H](NC(C)=O)C(=O)N[C@@H](Cc1c[nH]cn1)C(=O)N[C@H](C(=O)N[C@H](C(=O)N[C@H](C(=O)N1CCC[C@H]1C(=O)N[C@H](C(=O)N[C@@H](CC(=O)O)C(=O)N[C@@H](CC(C)C)C(=O)N[C@@H](Cc1c[nH]c2ccccc12)C(=O)N[C@@H](CC(=O)O)C(=O)N[C@@H](Cc1c[nH]c2ccccc12)C(=O)N[C@H](C(=O)N[C@@H](CC(N)=O)C(=O)N[C@@H](CCCCN)C(N)=O)[C@@H](C)CC)C(C)C)[C@@H](C)CC)[C@@H](C)O)C(C)C [SEQ ID NO: 195] (Ac-IHVTIPVDLWDWINK-NH2)	< 10 µM	
CC[C@H](C)[C@H](NC(C)=O)C(=O)N[C@@H](Cc1c[nH]cn1)C(=O)N[C@H](C(=O)N[C@H](C(=O)N[C@H](C(=O)N1CCC[C@H]1C(=O)N[C@H](C(=O)N[C@@H](CC(=O)O)C(=O)N[C@@H](CC(C)C)C(=O)N[C@@H](Cc1c[nH]c2ccccc12)C(=O)N[C@@H](CC(=O)O)C(=O)N[C@@H](Cc1c[nH]c2ccccc12)C(=O)N[C@H](C(=O)N[C@@H](CC(N)=O)C(=O)N[C@@H](CCCCN)C(N)=O)[C@@H](C)CC)[C@@H](C)CC)[C@@H](C)CC)[C@@H](C)O)C(C)C [SEQ ID NO: 196] (Ac-IHVTIPIDLWDWINK-NH2)	< 10 µM	
CC[C@H](C)[C@H](NC(C)=O)C(=O)N[C@@H](Cc1c[nH]cn1)C(=O)N[C@H](C(=O)N[C@H](C(=O)N[C@H](C(=O)N1CCC[C@H]1C(=O)N[C@@H](CC(N)=O)C(=O)N[C@@H](CC(=O)O)C(=O)N[C@@H](CC(C)C)C(=O)N[C@@H](Cc1c[nH]c2ccccc12)C(=O)N[C@@H](CC(=O)O)C(=O)N[C@@H](Cc1c[nH]c2ccccc12)C(=O)N[C@H](C(=O)N[C@@H](CC(N)=O)C(=O)N[C@@H](CCCCN)C(N)=O)[C@@H](C)CC)[C@@H](C)CC)[C@@H](C)O)C(C)C [SEQ ID NO: 197] (Ac-IHVTIPNDLWDWINK-NH2)	< 10 µM	
CC[C@H](C)[C@H](NC(C)=O)C(=O)N[C@@H](Cc1c[nH]cn1)C(=O)N[C@H](C(=O)N[C@H](C(=O)N[C@H](C(=O)N1CCC[C@H]1C(=O)N[C@@H](CCC(N)=O)C(=O)N[C@@H](CC(=O)O)C(=O)N[C@@H](CC(C)C)C(=O)N[C@@H](Cc1c[nH]c2ccccc12)C(=O)N[C@@H](CC(=O)O)C(=O)N[C@@H](Cc1c[nH]c2ccccc12)C(=O)N[C@H](C(=O)N[C@@H](CC(N)=O)C(=O)N[C@@H](CCCCN)C(N)=O)[C@@H](C)CC)[C@@H](C)CC)[C@@H](C)O)C(C)C [SEQ ID NO: 198] (Ac-IHVTIPQDLWDWINK-NH2)	< 10 µM	
CC[C@H](C)[C@H](NC(C)=O)C(=O)N[C@@H](Cc1c[nH]cn1)C(=O)N[C@H](C(=O)N[C@H](C(=O)N[C@H](C(=O)N1CCC[C@H]1C(=O)N[C@@H](C)C(=O)N[C@@H](CCC(N)=O)C(=O)N[C@@H](CC(C)C)C(=O)N[C@@H](Cc1c[nH]c2ccccc12)C(=O)N[C@@H](CC(=O)O)C(=O)N[C@@H](Cc1c[nH]c2ccccc12)C(=O)N[C@H](C(=O)N[C@@H](CC(N)=O)C(=O)N[C@@H](CCCCN)C(N)=O)[C@@H](C)CC)[C@@H](C)CC)[C@@H](C)O)C(C)C [SEQ ID NO: 199] (Ac-IHVTIPAQLWDWINK-NH2)	< 10 µM	
CC[C@H](C)[C@H](NC(C)=O)C(=O)N[C@@H](Cc1c[nH]cn1)C(=O)N[C@H](C(=O)N[C@H](C(=O)N[C@H](C(=O)N1CCC[C@H]1C(=O)N[C@@H](C)C(=O)N[C@@H](Cc1ccc(O)cc1)C(=O)N[C@@H](CC(C)C)C(=O)N[C@@H](Cc1c[nH]c2ccccc12)C(=O)N[C@@H](CC(=O)O)C(=O)N[C@@H](Cc1c[nH]c2ccccc12)C(=O)N[C@H](C(=O)N[C@@H](CC(N)=O)C(=O)N[C@@H](CCCCN)C(N)=O)[C@@H](C)CC)[C@@H](C)CC)[C@@H](C)O)C(C)C [SEQ ID NO: 200] (Ac-IHVTIPAYLWDWINK-NH2)	< 10 µM	
CC[C@H](C)[C@H](NC(C)=O)C(=O)N[C@@H](Cc1c[nH]cn1)C(=O)N[C@H](C(=O)N[C@H](C(=O)N[C@H](C(=O)N1CCC[C@H]1C(=O)N[C@@H](C)C(=O)N[C@@H](CC(=O)O)C(=O)N[C@@H](C)C(=O)N[C@@H](Cc1c[nH]c2ccccc12)C(=O)N[C@@H](CC(=O)O)C(=O)N[C@@H](Cc1c[nH]c2ccccc12)C(=O)N[C@H](C(=O)N[C@@H](CC(N)=O)C(=O)N[C@@H](CCCCN)C(N)=O)[C@@H](C)CC)[C@@H](C)CC)[C@@H](C)O)C(C)C [SEQ ID NO: 201] (Ac-IHVTIPADAWDWINK-NH2)	< 10 µM	
CC[C@H](C)[C@H](NC(C)=O)C(=O)N[C@@H](Cc1c[nH]cn1)C(=O)N[C@H](C(=O)N[C@H](C(=O)N[C@H](C(=O)N1CCC[C@H]1C(=O)N[C@@H](C)C(=O)N[C@@H](CC(=O)O)C(=O)NCC(=O)N[C@@H](Cc1c[nH]c2ccccc12)C(=O)N[C@@H](CC(=O)O)C(=O)N[C@@H](Cc1c[nH]c2ccccc12)C(=O)N[C@H](C(=O)N[C@@H](CC(N)=O)C(=O)N[C@@H](CCCCN)C(N)=O)[C@@H](C)CC)[C@@H](C)CC)[C@@H](C)O)C(C)C [SEQ ID NO: 202] (Ac-IHVTIPADGWDWINK-NH2)	< 10 µM	
CC[C@H](C)[C@H](NC(C)=O)C(=O)N[C@@H](Cc1c[nH]cn1)C(=O)N[C@H](C(=O)N[C@H](C(=O)N[C@H](C(=O)N1CCC[C@H]1C(=O)N[C@@H](C)C(=O)N[C@@H](CC(=O)O)C(=O)N1CCC[C@H]1C(=O)N[C@@H](Cc1c[nH]c2ccccc12)C(=O)N[C@@H](CC(=O)O)C(=O)N[C@@H](Cc1c[nH]c2ccccc12)C(=O)N[C@H](C(=O)N[C@@H](CC(N)=O)C(=O)N[C@@H](CCCCN)C(N)=O)[C@@H](C)CC)[C@@H](C)CC)[C@@H](C)O)C(C)C [SEQ ID NO: 203] (Ac-IHVTIPADPWDWINK-NH2)	< 10 µM	
CC[C@H](C)[C@H](NC(C)=O)C(=O)N[C@@H](Cc1c[nH]cn1)C(=O)N[C@H](C(=O)N[C@H](C(=O)N[C@H](C(=O)N1CCC[C@H]1C(=O)N[C@@H](C)C(=O)N[C@@H](CC(=O)O)C(=O)N[C@H](C(=O)N[C@@H](Cc1c[nH]c2ccccc12)C(=O)N[C@@H](CC(=O)O)C(=O)N[C@@H](Cc1c[nH]c2ccccc12)C(=O)N[C@H](C(=O)N[C@@H](CC(N)=O)C(=O)N[C@@H](CCCCN)C(N)=O)[C@@H](C)CC)C(C)C)[C@@H](C)CC)[C@@H](C)O)C(C)C [SEQ ID NO: 204] (Ac-IHVTIPADVWDWINK-NH2)	< 10 µM	
CC[C@H](C)[C@H](NC(C)=O)C(=O)N[C@@H](Cc1c[nH]cn1)C(=O)N[C@H](C(=O)N[C@H](C(=O)N[C@H](C(=O)N1CCC[C@H]1C(=O)N[C@@H](C)C(=O)N[C@@H](CC(=O)O)C(=O)N[C@H](C(=O)N[C@@H](Cc1c[nH]c2ccccc12)C(=O)N[C@@H](CC(=O)O)C(=O)N[C@@H](Cc1c[nH]c2ccccc12)C(=O)N[C@H](C(=O)N[C@@H](CC(N)=O)C(=O)N[C@@H](CCCCN)C(N)=O)[C@@H](C)CC)[C@@H](C)CC)[C@@H](C)CC)[C@@H](C)O)C(C)C [SEQ ID NO: 205] (Ac-IHVTIPADIWDWINK-NH2)		< 10 µM
CC[C@H](C)[C@H](NC(C)=O)C(=O)N[C@@H](Cc1c[nH]cn1)C(=O)N[C@H](C(=O)N[C@H](C(=O)N[C@H](C(=O)N1CCC[C@H]1C(=O)N[C@@H](C)C(=O)N[C@@H](CC(=O)O)C(=O)N[C@@H](CC(C)C)C(=O)N[C@@H](Cc1c[nH]cn1)C(=O)N[C@@H](CC(=O)O)C(=O)N[C@@H](Cc1c[nH]c2ccccc12)C(=O)N[C@H](C(=O)N[C@@H](CC(N)=O)C(=O)N[C@@H](CCCCN)C(N)=O)[C@@H](C)CC)[C@@H](C)CC)[C@@H](C)O)C(C)C [SEQ ID NO: 206] (Ac-IHVTIPADLHDWINK-NH2)	< 10 µM	
CC[C@H](C)[C@H](NC(C)=O)C(=O)N[C@@H](Cc1c[nH]cn1)C(=O)N[C@H](C(=O)N[C@H](C(=O)N[C@H](C(=O)N1CCC[C@H]1C(=O)N[C@@H](C)C(=O)N[C@@H](CC(=O)O)C(=O)N[C@@H](CC(C)C)C(=O)N[C@@H](Cc1ccccc1)C(=O)N[C@@H](CC(=O)O)C(=O)N[C@@H](Cc1c[nH]c2ccccc12)C(=O)N[C@H](C(=O)N[C@@H](CC(N)=O)C(=O)N[C@@H](CCCCN)C(N)=O)[C@@H](C)CC)[C@@H](C)CC)[C@@H](C)O)C(C)C [SEQ ID NO: 207] (Ac-IHVTIPADLFDWINK-NH2)	< 10 µM	
CC[C@H](C)[C@H](NC(C)=O)C(=O)N[C@@H](Cc1c[nH]cn1)C(=O)N[C@H](C(=O)N[C@H](C(=O)N[C@H](C(=O)N1CCC[C@H]1C(=O)N[C@@H](C)C(=O)N[C@@H](CC(=O)O)C(=O)N[C@@H](CC(C)C)C(=O)N[C@@H](Cc1c[nH]c2ccccc12)C(=O)N[C@@H](CC(N)=O)C(=O)N[C@@H](Cc1c[nH]c2ccccc12)C(=O)N[C@H](C(=O)N[C@@H](CC(N)=O)C(=O)N[C@@H](CCCCN)C(N)=O)[C@@H](C)CC)[C@@H](C)CC)[C@@H](C)O)C(C)C [SEQ ID NO: 208] (Ac-IHVTIPADLWNWINK-NH2)	< 10 µM	
